Each structure is given as a SMILES string. Activity calls are given as the source filed them. No cut-off for these calls is given here.

For assay [1], the target named is Coagulation factor X (Homo sapiens, UniProt P00742). In words: Inhibition of human factor 10a.
The target of assay [2] is Trypsin (Homo sapiens) (UniProt P07477+P07478+P35030). In words: Inhibition of human trypsin. The format is protein assay.
Assay [3] deals with Coagulation factor IX (Homo sapiens) (UniProt P00740). In words: Inhibition of human factor 9a.
The target of assay [4] is T1, Coagulation factor VII (Homo sapiens) (UniProt P08709).
T1 sequence (whole entry): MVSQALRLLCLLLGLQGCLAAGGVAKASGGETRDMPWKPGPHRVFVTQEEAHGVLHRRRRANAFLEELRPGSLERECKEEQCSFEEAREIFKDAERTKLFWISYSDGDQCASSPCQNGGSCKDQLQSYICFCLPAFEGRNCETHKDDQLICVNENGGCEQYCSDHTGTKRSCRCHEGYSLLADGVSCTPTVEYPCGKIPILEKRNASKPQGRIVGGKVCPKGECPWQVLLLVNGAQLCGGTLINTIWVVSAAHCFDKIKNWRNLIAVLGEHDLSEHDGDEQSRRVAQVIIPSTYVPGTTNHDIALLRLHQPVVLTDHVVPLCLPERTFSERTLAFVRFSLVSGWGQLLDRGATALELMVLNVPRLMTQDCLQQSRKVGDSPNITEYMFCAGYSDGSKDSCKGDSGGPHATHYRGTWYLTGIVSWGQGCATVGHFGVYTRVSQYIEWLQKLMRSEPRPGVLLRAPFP
In words: Inhibition of human factor 7a.

Assay [5] has as its target Plasminogen (Homo sapiens) (UniProt P00747). In words: Inhibition of human plasmin.
The species named for assay [6] is Homo sapiens. In words: Inhibition of human chymotrypsin.
The target of assay [7] is Tissue-type plasminogen activator (Homo sapiens) (UniProt P00750). In words: Inhibition of human tPA.
The target in assay [8] is Plasma kallikrein (Homo sapiens) (UniProt P03952). In words: Inhibition of human plasma kallikrein. The format is cell-free.
Assay [9] addresses Vitamin K-dependent protein C (Homo sapiens) (UniProt P04070). In words: Inhibition of human activated protein C.

Plasma kallikrein (Homo sapiens), sequence (P03952 20-390 limits assumed): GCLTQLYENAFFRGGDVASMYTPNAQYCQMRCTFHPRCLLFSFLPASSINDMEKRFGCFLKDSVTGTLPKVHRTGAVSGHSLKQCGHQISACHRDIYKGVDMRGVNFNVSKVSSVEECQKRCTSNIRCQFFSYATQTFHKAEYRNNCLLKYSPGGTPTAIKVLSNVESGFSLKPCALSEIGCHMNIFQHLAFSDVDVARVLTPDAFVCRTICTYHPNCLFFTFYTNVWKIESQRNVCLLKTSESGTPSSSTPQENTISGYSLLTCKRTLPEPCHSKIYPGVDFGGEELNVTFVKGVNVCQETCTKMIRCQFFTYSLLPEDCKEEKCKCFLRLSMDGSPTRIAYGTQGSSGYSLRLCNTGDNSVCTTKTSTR
Plasma kallikrein (Homo sapiens), sequence (P03952 391-638 limits assumed): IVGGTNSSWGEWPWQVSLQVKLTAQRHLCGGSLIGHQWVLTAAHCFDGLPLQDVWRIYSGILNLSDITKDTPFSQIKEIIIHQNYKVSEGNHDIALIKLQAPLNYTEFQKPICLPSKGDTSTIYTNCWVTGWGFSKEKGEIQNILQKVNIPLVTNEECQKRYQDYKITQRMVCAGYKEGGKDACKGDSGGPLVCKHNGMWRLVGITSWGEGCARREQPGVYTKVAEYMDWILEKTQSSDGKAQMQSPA
Coagulation factor IX (Homo sapiens), sequence (P00740 47-191 limits assumed): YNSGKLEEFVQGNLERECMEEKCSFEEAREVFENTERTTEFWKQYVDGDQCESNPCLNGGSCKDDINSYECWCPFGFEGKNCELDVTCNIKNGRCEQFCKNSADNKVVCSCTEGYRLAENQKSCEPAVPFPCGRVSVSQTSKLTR
Coagulation factor IX (Homo sapiens), sequence (P00740 227-461 limits assumed): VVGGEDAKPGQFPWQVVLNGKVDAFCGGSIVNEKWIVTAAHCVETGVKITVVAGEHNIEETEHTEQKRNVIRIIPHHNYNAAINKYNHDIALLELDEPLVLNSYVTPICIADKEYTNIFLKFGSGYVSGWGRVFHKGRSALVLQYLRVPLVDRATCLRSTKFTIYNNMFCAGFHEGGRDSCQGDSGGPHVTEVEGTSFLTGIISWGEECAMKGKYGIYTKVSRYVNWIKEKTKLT
Tissue-type plasminogen activator (Homo sapiens), sequence (P00750 36-562 limits assumed): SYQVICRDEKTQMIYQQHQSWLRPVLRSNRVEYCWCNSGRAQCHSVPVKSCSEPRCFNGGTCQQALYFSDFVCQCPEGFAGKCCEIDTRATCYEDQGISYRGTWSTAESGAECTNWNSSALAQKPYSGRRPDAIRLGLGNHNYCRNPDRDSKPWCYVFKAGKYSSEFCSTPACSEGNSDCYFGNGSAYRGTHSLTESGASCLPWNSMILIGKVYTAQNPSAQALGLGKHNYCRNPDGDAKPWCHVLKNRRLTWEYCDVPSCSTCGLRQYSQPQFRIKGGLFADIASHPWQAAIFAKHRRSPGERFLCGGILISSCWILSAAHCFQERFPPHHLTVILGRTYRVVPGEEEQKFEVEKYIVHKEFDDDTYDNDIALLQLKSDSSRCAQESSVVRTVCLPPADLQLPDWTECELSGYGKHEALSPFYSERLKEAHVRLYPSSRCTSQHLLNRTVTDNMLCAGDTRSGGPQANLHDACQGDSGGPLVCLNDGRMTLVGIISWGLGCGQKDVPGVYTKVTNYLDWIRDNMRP
Plasminogen (Homo sapiens), sequence (P00747 97-580 limits assumed): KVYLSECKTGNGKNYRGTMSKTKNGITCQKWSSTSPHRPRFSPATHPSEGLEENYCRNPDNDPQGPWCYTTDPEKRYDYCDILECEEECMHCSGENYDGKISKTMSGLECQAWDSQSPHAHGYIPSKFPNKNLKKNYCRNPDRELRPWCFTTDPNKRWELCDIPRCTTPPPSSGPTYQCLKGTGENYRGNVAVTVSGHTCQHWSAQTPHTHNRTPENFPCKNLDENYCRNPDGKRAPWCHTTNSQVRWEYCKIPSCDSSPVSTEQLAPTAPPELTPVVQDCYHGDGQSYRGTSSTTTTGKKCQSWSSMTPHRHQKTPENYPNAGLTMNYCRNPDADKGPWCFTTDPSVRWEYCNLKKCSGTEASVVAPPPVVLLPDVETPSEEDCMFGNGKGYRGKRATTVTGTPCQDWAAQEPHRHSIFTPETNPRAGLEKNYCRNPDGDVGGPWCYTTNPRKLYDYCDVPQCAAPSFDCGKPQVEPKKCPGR
Plasminogen (Homo sapiens), sequence (P00747 581-810 limits assumed): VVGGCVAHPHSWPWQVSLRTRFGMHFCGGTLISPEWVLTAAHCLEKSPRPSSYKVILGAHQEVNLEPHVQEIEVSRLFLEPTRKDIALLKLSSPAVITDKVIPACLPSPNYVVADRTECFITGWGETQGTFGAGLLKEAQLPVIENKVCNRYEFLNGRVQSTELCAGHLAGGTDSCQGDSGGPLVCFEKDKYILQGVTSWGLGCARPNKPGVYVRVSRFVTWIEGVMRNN
Coagulation factor X, sequence (P00742 41-179 limits assumed): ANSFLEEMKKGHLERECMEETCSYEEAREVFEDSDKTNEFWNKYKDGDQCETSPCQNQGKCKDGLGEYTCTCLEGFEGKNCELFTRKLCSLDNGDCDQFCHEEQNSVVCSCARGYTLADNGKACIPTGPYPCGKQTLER
Coagulation factor X, sequence (P00742 235-488 limits assumed): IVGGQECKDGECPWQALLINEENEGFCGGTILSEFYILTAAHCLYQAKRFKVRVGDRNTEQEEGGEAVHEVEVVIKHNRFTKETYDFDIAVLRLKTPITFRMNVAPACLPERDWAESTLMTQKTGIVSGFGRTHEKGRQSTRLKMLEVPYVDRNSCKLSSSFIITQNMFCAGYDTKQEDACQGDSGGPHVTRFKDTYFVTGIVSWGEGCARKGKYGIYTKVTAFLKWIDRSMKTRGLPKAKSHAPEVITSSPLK
Vitamin K-dependent protein C (Homo sapiens), sequence (P04070 43-197 limits assumed): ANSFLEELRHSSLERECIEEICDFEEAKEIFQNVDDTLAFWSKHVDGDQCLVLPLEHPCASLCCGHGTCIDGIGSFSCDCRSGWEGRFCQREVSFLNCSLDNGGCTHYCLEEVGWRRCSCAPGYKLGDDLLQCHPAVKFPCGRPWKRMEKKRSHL
Vitamin K-dependent protein C (Homo sapiens), sequence (P04070 212-461 limits assumed): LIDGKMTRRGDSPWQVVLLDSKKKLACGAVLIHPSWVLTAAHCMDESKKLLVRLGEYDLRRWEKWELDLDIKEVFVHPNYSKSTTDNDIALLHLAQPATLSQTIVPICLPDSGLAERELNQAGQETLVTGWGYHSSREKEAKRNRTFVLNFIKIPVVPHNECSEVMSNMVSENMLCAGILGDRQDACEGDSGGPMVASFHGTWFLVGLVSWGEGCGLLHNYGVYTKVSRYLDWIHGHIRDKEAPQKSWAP

In assay [1], `COc1ccc(-n2nc(C(F)(F)F)c3c2C(=O)N(c2ccc(C4(CN(C)S(C)(=O)=O)CC4)cc2)CC3)cc1` gave a Ki of 0.074 nM. Moreover, the result in [2], in assay [3], in [4], in [5], in assay [6] and in assay [7] was inactive. Also, the result in assay [8] and in assay [9] was inactive.

Regarding `COc1ccc(-n2nc(C(F)(F)F)c3c2C(=O)N(c2ccc(C4(C(=O)Nc5nncs5)CC4)cc2)CC3)cc1`, the Ki in [1] came out at 1.8 nM. For the same compound, the result in [2], in assay [3], in [4], in [5], in [6] and in [7] was inactive. Moreover, the result in [8] and in assay [9] was inactive.

In the case of `COc1ccc(-n2nc(C(F)(F)F)c3c2C(=O)N(c2ccc(C4(Cn5ccnc5C)CC4)cc2)CC3)cc1`, the outcome in assay [2], in assay [3], in [4], in assay [5], in assay [6] and in assay [7] was inactive. Also, the result in [8] and in [9] was inactive.

Turning to `COc1ccc(-n2nc(C(F)(F)F)c3c2C(=O)N(c2ccc(C4(CN5CCOCC5)CC4)cc2)CC3)cc1`, the result in assay [2], in assay [3], in assay [4], in assay [5], in assay [6] and in assay [7] was inactive. Further, the outcome in assay [8] and in [9] was inactive.

As for `COc1ccc(-n2nc(C(F)(F)F)c3c2C(=O)N(c2ccc(-c4ccccc4CNC(C)C)cc2)CC3)cc1`, in [1], the Ki came out at 1.4 nM.

On to `COc1ccc(-n2nc(C(F)(F)F)c3c2C(=O)N(c2ccc(C4(CO)CC4)cc2)CC3)cc1`, for which, in assay [1], the affinity corresponds to a Ki of 2.4 nM. In addition, the outcome in [2], in assay [3], in assay [4], in assay [5], in assay [6] and in assay [7] was inactive. Also, the result in assay [8] and in assay [9] was inactive.

On to `COc1ccc(-n2nc(C(F)(F)F)c3c2C(=O)N(c2ccc(C4(C(=O)N5CCCC5)CC4)cc2)CC3)cc1`, for which affinity in assay [1] was put at a Ki of 169 nM. In addition, the result in assay [2], in [3], in assay [4], in assay [5], in [6] and in assay [7] was inactive. Further, the outcome in [8] and in assay [9] was inactive.

Compound `COc1ccc(-n2nc(C(F)(F)F)c3c2C(=O)N(c2ccc(C4(C(=O)N(C)C)CC4)cc2)CC3)cc1` gave a Ki in [1] of 5.8 nM. The result in assay [2], in [3], in assay [4], in [5], in assay [6] and in assay [7] was inactive. Further, the outcome in assay [8] and in [9] was inactive.

In assay [1], `COc1ccc(-n2nc(C(F)(F)F)c3c2C(=O)N(c2ccc(C4(C(=O)N5CCC(O)CC5)CC4)cc2)CC3)cc1` registered a Ki of 54 nM. The result in assay [2], in [3], in assay [4], in assay [5], in assay [6] and in assay [7] was inactive. Besides, the result in [8] and in assay [9] was inactive.

Regarding `COc1ccc(-n2nc(C(F)(F)F)c3c2C(=O)N(c2ccc(C4(CN5CC[C@@H](O)C5)CC4)cc2)CC3)cc1`, the inhibition constant Ki in assay [1] came to 0.038 nM. Moreover, the result in [2], in [3], in assay [4], in assay [5], in [6] and in [7] was inactive. Further, the outcome in [8] and in assay [9] was inactive.

With `COc1ccc(-n2nc(C(F)(F)F)c3c2C(=O)N(c2ccc(C4(CN(C)C(C)=O)CC4)cc2)CC3)cc1`, the inhibitory constant (Ki) in assay [1] was 0.055 nM. Besides, the outcome in [2], in [3], in assay [4], in assay [5], in assay [6] and in assay [7] was inactive. Also, the outcome in assay [8] and in assay [9] was inactive.

Consider `CNCC1(c2ccc(N3CCc4c(C(F)(F)F)nn(-c5ccc(OC)cc5)c4C3=O)cc2)CC1`, for which the outcome in assay [2], in [3], in assay [4], in assay [5], in assay [6] and in [7] was inactive. For the same compound, the outcome in assay [8] and in assay [9] was inactive.

In assay [1], `COc1ccc(-n2nc(C(F)(F)F)c3c2C(=O)N(c2ccc(C4(CNC5CCCC5)CC4)cc2)CC3)cc1` displayed an inhibition constant (Ki) of 0.12 nM. For the same compound, the outcome in assay [2], in assay [3], in [4], in [5], in assay [6] and in [7] was inactive. Also, the outcome in assay [8] and in assay [9] was inactive.

Compound `COc1ccc(-n2nc(C(F)(F)F)c3c2C(=O)N(c2ccc(C4(C(=O)NC5CCCC5)CC4)cc2)CC3)cc1` returned a Ki in [1] of 30 nM. Further, the outcome in [2], in [3], in [4], in assay [5], in assay [6] and in [7] was inactive. In addition, the outcome in [8] and in [9] was inactive.

For the compound `CNCc1ccccc1-c1ccc(N2CCc3c(C(N)=O)nn(-c4ccc(OC)cc4)c3C2=O)cc1`, the Ki in [1] stood at 0.15 nM.

For `COc1ccc(-n2nc(C(F)(F)F)c3c2C(=O)N(c2ccc(C4(C(=O)Nc5nnn[nH]5)CC4)cc2)CC3)cc1`, in assay [1], the affinity, expressed as Ki, was 3 nM. Further, the outcome in assay [2], in assay [3], in assay [4], in assay [5], in [6] and in assay [7] was inactive. Further, the result in assay [8] and in assay [9] was inactive.

As for `COc1ccc(-n2nc(C(F)(F)F)c3c2C(=O)N(c2ccc(C4(C#N)CC4)cc2)CC3)cc1`, in assay [1], the inhibitory constant (Ki) was found to be 1.8 nM. Moreover, the result in assay [2], in assay [3], in [4], in assay [5], in assay [6] and in assay [7] was inactive. Moreover, the result in assay [8] and in assay [9] was inactive.

Regarding `COc1ccc(-n2nc(C(F)(F)F)c3c2C(=O)N(c2ccc(C4(CN5CCC(O)CC5)CC4)cc2)CC3)cc1`, the affinity in assay [1], expressed as Ki, was 0.14 nM. For the same compound, the outcome in assay [2], in [3], in assay [4], in [5], in [6] and in assay [7] was inactive. The result in assay [8] and in assay [9] was inactive.

Compound `CNCc1ccccc1-c1ccc(N2CCc3c(C(F)(F)F)nn(-c4ccc(OC)cc4)c3C2=O)cc1` yielded a Ki in assay [1] of 0.28 nM.

In turn, `COc1ccc(-n2nc(C(F)(F)F)c3c2C(=O)N(c2ccc(-c4ccccc4CN(C)C)cc2)CC3)cc1` returned a Ki in assay [1] of 0.3 nM.

As to `COC(=O)C1(c2ccc(N3CCc4c(C(F)(F)F)nn(-c5ccc(OC)cc5)c4C3=O)cc2)CC1`, the outcome in assay [2], in assay [3], in assay [4], in assay [5], in assay [6] and in assay [7] was inactive. Moreover, the result in [8] and in assay [9] was inactive.

The values are drawn from ChEMBL document CHEMBL1157522 (Bioorg Med Chem Lett, 2008).
